Counter-ions that a name gives are not always drawn. Where a SMILES comes first, the peptide text is derived from it. [ ]: non-standard residue; d: D form. Trx = NC[C@H]1CC[C@H](C(=O)O)CC1; Sar = CNCC(=O)O
How the values were obtained:
hydrochloric acid ulcer = experiment: Action against hydrochloric acid ulcer; format: in vivo, Wistar-strain male rats; settings: po, 1 h; rat, 100 mg/kg peroral administration, 30 min before 0.6 N-HCl; ulcer area; read-out: Anti-ulcer action (hydrochloric acid ulcer model), Inhibition rate against non-administered animal
Method: (1) Action against hydrochloric acid ulcer Wistar-strain male rats (weight 180 g, 6 to 7 rats per group) were starved for 18 hours and left without water for 4 hours before the test. The test drug was formed into an aqueous solution or suspended in an aqueous solution of 0.5% carboxymethyl cellulose and administered orally at a volume of 0.5 ml/100 g, and 30 minutes after administration, 1 ml of 0.6 N-HCl was orally administered. One hour after the administration, the stomach was excised and injected with 5 ml of 5% formalin solution. After the formalin fixation for 10 min., the stomach was cut open along the greater curvature, and the area (mm^2) of an ulcer generated at the corpus of stomach was measured. The total sum of the area of ulcer generated per rat was compared with that of the control group. The control group was administered with water or a 0.5% aqueous carboxymethyl cellulose solution. The Ulcer Index was determined as the inhibition ratio (%).

[1] = system: restrictive water immersion stress ulcer; experiment: Action against restrictive water immersion stress ulcer; format: in vivo, Wistar-strain male rats; settings: po; rat, 100 mg/kg peroral administration, 7 hours water immersion stress at 23° C.; ulcer length; read-out: Anti-ulcer action (stress ulcer), Inhibition rate against non-administered animal
Method: (2) Action against restrictive water immersion stress ulcer Wistar-strain male rats (weight 180 g, 6 to 8 rats per group) were starved for 18 hours before the test. The test drug was administered orally by the same method as used in (1). Thirty minutes after the administration, the rats were placed in a restrictive stress cage, and immersed to the xiphoideus process of the rat in water of 23° C. After the loading stress for 7 hours, the stomach was excised and, fixed in formalin by the same method as used in (1), and the length (mm) of the ulcer was measured. The total length of an ulcer generated per rat was compared with that of the control group. An Ulcer Index was determined as the inhibition ratio (%).

Compound | inhibition in vivo at 100 mg/kg (hydrochloric acid ulcer) [%] | inhibition in vivo at 100 mg/kg [1] [%]
CCOC(=O)C1CCCC(NC(=O)[C@H](Cc2ccccc2)NC(=O)[C@H]2CC[C@H](CN)CC2)C1 (some centres unmarked) [Compound 6] | 77.4 | –
CN(C)C(=O)[C@H](Cc1ccccc1)NC(=O)[C@H]1CC[C@H](CNC(=N)N)CC1 [Compound 19, N-(trans-4-guanidinomethylcyclohexylcarbonyl)-L-phenylalanine dimethylamide methanesulfonate] | 52.5 | –
CC(=O)c1ccc(NC(=O)[C@H](Cc2ccccc2)NC(=O)c2ccc(C(=N)N)cc2)cc1 [Compound 29] | 81 | 83.7
CCOC(=O)CNC(=O)[C@H](Cc1ccccc1)NC(=O)[C@H]1CC[C@H](CN)CC1 [Compound 5] (H-[Trx]-Phe-Gly-OEt) | 53.3 | 76
CC(=O)c1ccc(NC(=O)[C@H](Cc2ccccc2)NC(=O)c2ccc(CN)cc2)cc1 [Compound 16, N-(4-aminomethylbenzoyl)-L-phenylalanine 4-acetylanilide hydrochloride] | 96.6 | –
CN(C)C(=O)[C@H](Cc1ccccc1)NC(=O)[C@H]1CC[C@H](CN)CC1 [Compound 9, N-(trans-4-aminomethylcyclohexyl-carbonyl)-L-phenylalanine dimethylamide hydrochloride] | 73.6 | 77.6
CCOC(=O)c1ccc(CNC(=O)[C@H](Cc2ccccc2)NC(=O)[C@H]2CC[C@H](CN)CC2)cc1 [Compound 10] | 60.4 | 86.1
CCOC(=O)c1cccc(NC(=O)[C@H](Cc2ccccc2)NC(=O)[C@H]2CC[C@H](CN)CC2)c1 [Compound 18] | 89.2 | –
CCOC(=O)[C@H](CO)NC(=O)[C@H](Cc1ccccc1)NC(=O)[C@H]1CC[C@H](CN)CC1 [Compound 20, Ethyl N-N-(trans-4-aminomethylcyclohexylcarbonyl)-L-phenylalanyl-L-serinate hydrochloride] (H-[Trx]-Phe-Ser-OEt) | 54.3 | 70
NC[C@H]1CC[C@H](C(=O)N[C@@H](Cc2ccccc2)C(=O)Nc2ccc(C(N)=O)cc2)CC1 [Compound 13, N-(trans-4-aminomethylcyclohexyl-carbonyl)-L-phenylalanine 4-carbamoylanilide hydrochloride] | 85.7 | 64.8
CNC(=O)[C@H](Cc1ccccc1)NC(=O)[C@H]1CC[C@H](CN)CC1 [Compound 7, N-(trans-4-aminomethylcyclohexyl-carbonyl)-L-phenylalanine methylamide hydrochloride] | 52.6 | –
NCc1ccc(C(=O)N[C@@H](Cc2ccccc2)C(=O)Nc2ccc(C(N)=O)cc2)cc1 [Compound 27, N-(4-aminomethylbenzoyl)-L-phenylalanine 4-carbamoylanilide hydrochloride] | 78.1 | –
CCOC(=O)c1ccccc1NC(=O)[C@H](Cc1ccccc1)NC(=O)[C@H]1CC[C@H](CN)CC1 [Compound 3] | 91.4 | 52.2
NCc1ccc(C(=O)N[C@@H](Cc2ccccc2)C(N)=O)cc1 [Compound 2, N-(4-aminomethylbenzoyl)-L-phenyl-alanineamide hydrochloride] | 58.2 | –
CC(=O)c1ccc(NC(=O)[C@H](Cc2ccccc2)NC(=O)[C@H]2CC[C@H](CN)CC2)cc1 [Compound 8] | 73.2 | 65
CCOC(=O)CN(C)C(=O)[C@H](Cc1ccccc1)NC(=O)[C@H]1CC[C@H](CN)CC1 [Compound 25] (H-[Trx]-Phe-[Sar]-OEt) | 57.3 | –

Compound | inhibition in vivo at 100 mg/kg (hydrochloric acid ulcer) [%] | inhibition in vivo at 100 mg/kg [1] [%]
NC[C@H]1CC[C@H](C(=O)N[C@@H](Cc2ccccc2)C(=O)Nc2cccc(C(N)=O)c2)CC1 [Compound 26] | 80.8 | –
NC[C@H]1CC[C@H](C(=O)N[C@@H](Cc2ccccc2)C(N)=O)CC1 [Compound 1, N-[trans-4-aminomethylcyclohexyl-carbonyl]-L-phenylalanine amide hydrochloride] | 77.1 | 88.2
CCOC(=O)C1CCN(C(=O)[C@H](Cc2ccccc2)NC(=O)[C@H]2CC[C@H](CN)CC2)CC1 [Compound 11] | 68.4 | 85.2
CN(C)C(=O)[C@H](Cc1ccccc1)NC(=O)c1ccc(C(=N)N)cc1 [Compound 22, N-(4-amidinobenzoyl)-L-phenylalanine dimethylamide hydroiodide] | 86 | 76.2
CCOC(=O)c1ccc(NC(=O)[C@H](Cc2ccccc2)NC(=O)[C@H]2CC[C@H](CN)CC2)cc1 [Compound 21] | 89.8 | –
CCOC(=O)C1CCC(NC(=O)[C@H](Cc2ccccc2)NC(=O)[C@H]2CC[C@H](CN)CC2)CC1 (some centres unmarked) [Compound 4] | 71.4 | 74.6
CCOC(=O)CCNC(=O)[C@H](Cc1ccccc1)NC(=O)[C@H]1CC[C@H](CN)CC1 [Compound 30] | 67.5 | –
CNC(=O)c1ccc(NC(=O)[C@H](Cc2ccccc2)NC(=O)[C@H]2CC[C@H](CN)CC2)cc1 [Compound 23, N-(trans-4-aminomethylcyclohexylcarbonyl)-L-phenylalanine 4-methylcarbamoylanilide hydrochloride] | 79.9 | –
CN(C)C(=O)[C@H](Cc1ccccc1)NC(=O)c1ccc(CN)cc1 [Compound 17] | 57.5 | –
CC(C)(C)NC(=O)[C@H](Cc1ccccc1)NC(=O)[C@H]1CC[C@H](CN)CC1 [Compound 15] | 73.1 | 76.4
CN(C)C(=O)c1ccc(NC(=O)[C@H](Cc2ccccc2)NC(=O)[C@H]2CC[C@H](CN)CC2)cc1 [Compound 24] | 82.6 | 70.6
CC1CCC(NC(=O)[C@H](Cc2ccccc2)NC(=O)c2ccc(NC(=N)N)cc2)CC1 (mixture of isomers) [Compound 12, N-(4-guanidinobenzoyl)-L-phenylalanine 4-cis/trans-methylcyclohexylamide hydrochloride] | 89.4 | 65.8
CC(=O)c1ccc(NC(=O)C(Cc2cccc(Oc3ccccc3)c2)NC(=O)[C@H]2CC[C@H](CN)CC2)cc1 (mixture of isomers) [Compound 32, N-(trans-4-aminomethylcyclohexylcarbonyl)-3-phenoxy-DL-phenylalanine 4-acetylanilide hydrochloride] | 86.4 | 67.4
NC[C@H]1CC[C@H](C(=O)N[C@@H](Cc2ccc(OCc3ccccc3)cc2)C(=O)Nc2cccnc2)CC1 [Compound 31] | 92.3 | 60
NC[C@H]1CC[C@H](C(=O)N[C@@H](Cc2ccccc2)C(=O)Nc2ccc(C(=O)O)cc2)CC1 [Compound 14, N-(trans-4-aminomethylcyclohexylcarbonyl)-L-phenylalanine 4-hydroxycarbonylanilide hydrochloride] | 74.8 | –
N=C(N)c1ccc(C(=O)N[C@@H](Cc2ccccc2)C(=O)Nc2ccc(C(N)=O)cc2)cc1 [Compound 28, N-(4-amidinobenzoyl)-L-phenylalanine 4-carbamoylanilide methanesulfonate] | 69.8 | 57.4
